Laboratory results taken from patent publication US5885972A, “L-pyranosyl nucleosides” (Genencor International, Inc., priority 1996, dated 1999).
≈ marks a conversion by molar mass, not a printed value. Read-outs that look alike come from different tables or passages of the source.

Tests used:
HS578T [1] = experiment: In vitro radiometric (BACTEC) growth inhibition of human tumor cell line HS578T (breast); format: cell-based; conditions: Hs-578T; for viability at 10 µg/mL: 10 μg/ml, read-out: % survival tumor
Text: (§1) In vitro activity against certain human tumor cell lines. CELL LINES: Eight different established human cell lines (CALU (lung), COLO320 (colon), H578St (breast), HT-29 (colon), MCF-7 (breast), OM-1 (colon), SKLU (lung), and SKMES (lung) and two control cell lines (bone marrow cell lines and/or fibroblasts) were utilized. All cell lines were obtained from the Tumor Cloning Laboratory, Institute for Drug Development, Cancer Therapy and Research Center, San Antonio, Tex. All cell lines grew as monolayers in the appropriate culture medium supplemented with heat-inactivated calf serum. All reagents were obtained from Grand Island Biological Co., Grand Island, N.Y.
(§2) The iv formulations of the compounds of the present invention were prepared with sterile buffered saline and stored at -70° C. until required for testing.
(§3) Following trypsinization, tumor cells were suspended in tissue culture medium and exposed to the antitumor agents continuously at three different concentrations: 10, 1 and 0.1 μg/ml.
(§4) RADIOMETRIC MEASUREMENT OF GROWTH INHIBITION: Growth inhibition was assessed with the BACTEC System 460 (Johnston Laboratories, Towson, Md.) after addition of the antitumor agent to the cells in the respective growth medium containing ^14 C-glucose at a final concentration of 2 μCi/ml.
(§5) Two mls of the tumor cell suspension containing radioactive glucose were seeded into sterile, disposable 15 ml vials by injection through self-sealing rubber-aluminum caps. […] The seeded vials were then incubated at 37° C. Measurement of the release of ^14 CO2 resulting from the metabolism of ^14 C-glucose were performed on days 6, 9, 12, and 15 in the BACTEC instrument. This instrument flushes the ^14 CO2 containing air out of the vials into an ionization chamber that converts dpm to growth index values. […] Each data point represents triplicate values.
(§6) All compounds were compared on an equimilimolar level.
(§7) All compounds were dosed on an equimilimolar basis. […] [formula] A therapeutic ratio of <80% is considered active. In Vivo Evaluation

[2] = In vitro survival of control bone marrow cells exposed to compound (Table I); format: cell-based; conditions: human, 10 μg/ml
Text: as §1
IN VITRO EXPOSURE OF TUMOR CELLS TO COMPOUNDS: Stock solutions of intravenous (iv) formulations of certain of the compounds of the present invention (as shown in Table I below), as well as intravenous formulations of 5-FU (control) were used. The iv formulations of the compounds of the present invention were prepared with sterile buffered saline and stored at -70° C. until required for testing.
as §3
as §4, with “μCi/ml. (See generally, C. Arteaga, et al., A Radiometric Method for Evaluation of Chemotherapy Sensitivity: Results of Screening a Panel of Human Breast Cancer Cell Lines, Cancer Research, 47, 6248-6253, (1987).)” for “μCi/ml.”
Two mls of the tumor cell suspension containing radioactive glucose were seeded into sterile, disposable 15 ml vials by injection through self-sealing rubber-aluminum caps. […] The seeded vials were then incubated at 37° C. Measurement of the release of ^14 CO2 resulting from the metabolism of ^14 C-glucose were performed on days 6, 9, 12, and 15 in the BACTEC instrument. This instrument flushes the ^14 CO2 containing air out of the vials into an ionization chamber that converts dpm to growth index values. Chemotherapy sensitivity was calculated by comparing the growth index values of drug-treated vials to that observed in control vials. Each data point represents triplicate values.
as §6
The data presented in Table I are compared to results achieved with 5-FU as the control. All compounds were dosed on an equimilimolar basis. Inhibitory concentration (IC 50) is defined as the concentration required to kill 50% of the untreated cancer cells. Although the IC 50 of certain of the compounds listed in Table I may be higher than that for 5-FU (the control), the compounds of the present invention are generally less toxic to normal cells such as bone marrow or fibroblasts. […] Additionally, because of their lower toxicity to normal cells, it is anticipated that the present compounds may be dosed at a higher rate to selectively increase toxicity to the cancer cells. In this regard, a therapeutic ratio for a given compound is typically determined by the following calculation. [formula] A therapeutic ratio of <80% is considered active. In Vivo Evaluation

MCF-7 = experiment: In vitro radiometric (BACTEC) growth inhibition of human tumor cell line MCF-7 (breast); format: cell-based; conditions: for viability at 10 µg/mL: MCF7, MCF-7, 10 μg/ml
Text: as §1, §2, §3, §4, §5, §6, §7

SKMES = experiment: In vitro radiometric (BACTEC) growth inhibition of human tumor cell line SKMES (lung); format: cell-based
Text: as §1, §2, §3, §4, §5, §6, §7

SKLU = experiment: In vitro radiometric (BACTEC) growth inhibition of human tumor cell line SKLU (lung); format: cell-based; conditions: for viability at 10 µg/mL: 10 μg/ml
Text: as §1, §2, §3, §4, §5, §6, §7

OM-1 = experiment: In vitro radiometric (BACTEC) growth inhibition of human tumor cell line OM-1 (colon); format: cell-based; conditions: for viability at 10 µg/mL: OM-1, 10 μg/ml
Text: as §1, §2, §3, §4, §5, §6, §7

HT-29 = experiment: In vitro radiometric (BACTEC) growth inhibition of human tumor cell line HT-29 (colon); format: cell-based; conditions: for viability at 10 µg/mL: 10 μg/ml
Text: as §1, §2, §3, §4, §5, §6, §7

[3] = background statement on marketed drug; cited from earlier work
HS578T [4] = experiment: In vitro radiometric (BACTEC) growth inhibition of human tumor cell line HS578T (breast); format: cell-based; conditions: Hs-578T, 6 μg/ml, read-out: % survival tumor
COLO320 = experiment: In vitro radiometric (BACTEC) growth inhibition of human tumor cell line COLO320 (colon); format: cell-based
Text: as §1, with “N.Y. […]” for “N.Y.”
(§8) RADIOMETRIC MEASUREMENT OF GROWTH INHIBITION: Growth inhibition was assessed with the BACTEC System 460 (Johnston Laboratories, Towson, Md.) after addition of the antitumor agent to the cells in the respective growth medium containing ^14 C-glucose at a final concentration of 2 μCi/ml. […]
(§9) Two mls of the tumor cell suspension containing radioactive glucose were seeded into sterile, disposable 15 ml vials by injection through self-sealing rubber-aluminum caps. […] Chemotherapy sensitivity was calculated by comparing the growth index values of drug-treated vials to that observed in control vials. […]

CALU = experiment: In vitro radiometric (BACTEC) growth inhibition of human tumor cell line CALU (lung); format: cell-based
Text: as §1, with “N.Y. […]” for “N.Y.”
as §8, §9

[5] = HS578T, continuous exposure, read-out: IC 50
[6] = MCF7, MCF-7, continuous exposure, read-out: IC 50
[7] = SKLU, read-out: % survival tumor
[8] = SKLU, continuous exposure, read-out: IC 50
[9] = OM-1, continuous exposure, read-out: IC 50
[10] = continuous exposure, read-out: IC 50
[11] = 6 μg/ml, read-out: % survival tumor

## O=c1ccn([C@H]2OC[C@H](O)[C@H](O)[C@@H]2O)c(=O)[nH]1 [(3), β-L-ribopyranosyluracil]
HS578T [1]; HS578T
  viability at 10 µg/mL: 86.7%
HS578T [1]; [5]
  IC50: > 10 µg/mL
[2]
  viability: 96%

## O=c1[nH]c(=O)n([C@H]2OC[C@H](O)[C@H](O)[C@@H]2O)cc1F [(5), β-L-ribopyranosyl-5-fluorouracil]
MCF-7; read-out: % survival tumor
  viability at 10 µg/mL: 76.2%
MCF-7; [6]
  IC50: > 10 µg/mL
SKMES; SKMES, 10 μg/ml, read-out: % survival tumor
  viability at 10 µg/mL: 68.2%
SKMES; SKMES, continuous exposure, read-out: IC 50
  IC50: > 10 µg/mL
[2]
  viability: 116%
SKLU; [7]
  viability at 10 µg/mL: 90.1%
SKLU; [8]
  IC50: > 10 µg/mL

## Nc1ccn([C@H]2OC[C@H](O)[C@H](O)[C@@H]2O)c(=O)n1 [(8), β-L-ribopyranosylcytosine]
MCF-7; read-out: % survival tumor
  viability at 10 µg/mL: 72.2%
MCF-7; [6]
  IC50: > 10 µg/mL
HS578T [1]; HS578T
  viability at 10 µg/mL: 89.2%
HS578T [1]; [5]
  IC50: > 10 µg/mL
OM-1; read-out: % survival tumor
  viability at 10 µg/mL: 78.9%
OM-1; [9]
  IC50: > 10 µg/mL
[2]
  viability: 93.1%

## Nc1ncnc2c1ncn2[C@H]1OC[C@H](O)[C@H](O)[C@@H]1O [(11)]
HS578T [1]; HS578T
  viability at 10 µg/mL: 43.6%
HS578T [1]; [5]
  IC50: 7.8 µg/mL (≈ 29.2 µM)
OM-1; read-out: % survival tumor
  viability at 10 µg/mL: 41.6%
OM-1; [9]
  IC50: 8.3 µg/mL (≈ 31.1 µM)
[2]
  viability: 94.1%

## Nc1nc2c(ncn2[C@H]2OC[C@H](O)[C@H](O)[C@@H]2O)c(=O)[nH]1 [(14), β-L-ribopyranosylguanine]
[2]
  viability: 106%
HT-29; read-out: % survival tumor
  viability at 10 µg/mL: 94.8%
HT-29; [10]
  IC50: > 10 µg/mL

## O=c1[nH]c(=O)n([C@@H]2OC[C@H](O)[C@H](O)[C@@H]2O)cc1F [(18), α-L-ribopyranosyl-5-fluorouracil]
HS578T [1]; HS578T
  viability at 10 µg/mL: 83.6%
HS578T [1]; [5]
  IC50: 50.8 µg/mL (≈ 194 µM)
OM-1; read-out: % survival tumor
  viability at 10 µg/mL: 82.5%
OM-1; [9]
  IC50: 65.1 µg/mL (≈ 248 µM)
[2]
  viability: 166%
SKLU; [7]
  viability at 10 µg/mL: 78.4%
SKLU; [8]
  IC50: 57.1 µg/mL (≈ 218 µM)
HT-29; read-out: % survival tumor
  viability at 10 µg/mL: 83.1%
HT-29; [10]
  IC50: 119 µg/mL (≈ 454 µM)

## O=c1[nH]cc(F)c(=O)[nH]1 [Compound 5-FU, 5-fluorouracil, reference compound]
MCF-7; MCF7
  IC50: < 0.6 µg/mL
MCF-7; MCF7, MCF-7, 6 μg/ml, read-out: % survival tumor
  viability at 6 µg/mL: 4.2%
HS578T [1]
  IC50: < 0.6 µg/mL
SKMES
  IC50: < 0.6 µg/mL
SKMES; SKMES, 6 μg/ml, read-out: % survival tumor
  viability at 6 µg/mL: 29.1%
[3]
  side effects: GI side effects like nausea, vomiting and diarrhea, leukopenia, thrombocytopenia, alopecia
OM-1
  IC50: 1.47 µg/mL (≈ 11.3 µM)
OM-1; OM-1, 6 μg/ml, read-out: % survival tumor
  viability at 6 µg/mL: 20.1%
HS578T [4]
  viability at 6 µg/mL: 12.5%
COLO320; COLO 320, 6 μg/ml, read-out: % survival tumor
  viability at 6 µg/mL: 1%
COLO320; COLO 320, continuous exposure
  IC50: < 0.6 µg/mL
SKLU
  IC50: 1.05 µg/mL (≈ 8.07 µM)
SKLU; SKLU, 6 μg/ml, read-out: % survival tumor
  viability at 6 µg/mL: 24.7%
CALU; [11]
  viability at 6 µg/mL: 9.9%
CALU; continuous exposure
  IC50: < 0.6 µg/mL
HT-29
  IC50: 0.61 µg/mL (≈ 4.69 µM)
HT-29; [11]
  viability at 6 µg/mL: 5.7%
